# ChEMBL document CHEMBL4414645, “Development of Robust 17(R),18(S)-Epoxyeicosatetraenoic Acid (17,18-EEQ) Analogues as Potential Clinical Antiarrhythmic Agents” (J Med Chem, 2019)
# Active and inactive are the calls of the source. The calls are words filed in the database; no cut-off is given here.
# How the values were obtained:
# [1] = Negative chronotropic activity in Wistar rat neonatal cardiomyocytes assessed as change in basal beating rate after 7 mins by inverted microscopic method; type: functional
# [2] = molecular target: T1, Bifunctional epoxide hydrolase 2 (Homo sapiens) (UniProt P34913); conditions: Sf21, at 1 µM
# T1 sequence (whole entry): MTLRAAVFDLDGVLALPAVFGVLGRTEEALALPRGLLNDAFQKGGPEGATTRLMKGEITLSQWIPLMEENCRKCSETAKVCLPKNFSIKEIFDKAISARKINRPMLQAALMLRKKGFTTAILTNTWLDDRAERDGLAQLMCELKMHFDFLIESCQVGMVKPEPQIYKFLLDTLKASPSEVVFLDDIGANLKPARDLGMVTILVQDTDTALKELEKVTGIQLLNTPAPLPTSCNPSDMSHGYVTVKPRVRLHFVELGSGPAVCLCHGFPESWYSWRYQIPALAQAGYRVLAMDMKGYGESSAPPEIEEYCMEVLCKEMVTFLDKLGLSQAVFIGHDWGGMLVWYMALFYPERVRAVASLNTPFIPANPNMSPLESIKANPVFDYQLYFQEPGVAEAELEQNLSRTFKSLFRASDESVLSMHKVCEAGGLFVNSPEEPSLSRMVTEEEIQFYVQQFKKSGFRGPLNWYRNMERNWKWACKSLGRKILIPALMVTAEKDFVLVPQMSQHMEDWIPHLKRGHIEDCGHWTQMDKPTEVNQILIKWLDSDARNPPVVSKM
# Description: Inhibition of N-terminal His-tagged recombinant human soluble epoxide hydrolase (2 to 555 residues) expressed in Sf21 insect cells at 1 uM using as 14,15-EET as substrate after 10 mins by reversed-phase HPLC assay relative to control
# [3] = molecular target: T1, Bifunctional epoxide hydrolase 2 (Homo sapiens); assay: Inhibition of N-terminal His-tagged recombinant human soluble epoxide hydrolase (2 to 555 residues) expressed in Sf21 insect cells at 10 uM using as 14,15-EET as substrate after 10 mins by reversed-phase HPLC assay relative to control
# [4] = test system: Cytochrome P450; assay: Drug metabolism in human liver microsomes assessed as CYP450-mediated formation of [+O] metabolites at 1 uM after 60 mins in absence of NADPH by LC-MS analysis; type: ADME; conditions: 1 h
# [5] = test system: Cytochrome P450; assay: Drug metabolism in human liver microsomes assessed as CYP450-mediated formation of [+O] metabolites at 1 uM after 60 mins in presence of NADPH by LC-MS analysis; type: ADME; conditions: 1 h
# [6] = molecular target: T2, Epoxide hydrolase 1/Bifunctional epoxide hydrolase 2 (Homo sapiens, UniProt P07099+P34913); assay: Drug metabolism in human liver microsomes assessed as microsomal/soluble epoxide hydrolase mediated formation of [+O + H2O] metabolites at 1 uM after 60 mins in absence of NADPH by LC-MS analysis; type: ADME; conditions: 1 h
# T2 sequence (P07099 whole entry): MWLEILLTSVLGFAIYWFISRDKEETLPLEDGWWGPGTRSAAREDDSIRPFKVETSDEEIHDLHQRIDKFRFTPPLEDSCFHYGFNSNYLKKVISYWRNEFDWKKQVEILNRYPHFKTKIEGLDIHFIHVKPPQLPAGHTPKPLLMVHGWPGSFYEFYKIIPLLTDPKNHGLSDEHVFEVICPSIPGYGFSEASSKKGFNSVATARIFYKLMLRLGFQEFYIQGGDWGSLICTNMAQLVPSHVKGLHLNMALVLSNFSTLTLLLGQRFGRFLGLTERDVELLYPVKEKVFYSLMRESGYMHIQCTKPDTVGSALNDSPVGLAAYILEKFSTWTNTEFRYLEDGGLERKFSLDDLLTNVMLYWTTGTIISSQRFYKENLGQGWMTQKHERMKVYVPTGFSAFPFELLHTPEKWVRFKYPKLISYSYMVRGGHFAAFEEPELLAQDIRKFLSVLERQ
# T2 sequence (P34913 whole entry): T1 sequence (whole entry)
# [7] = molecular target: T2, Epoxide hydrolase 1/Bifunctional epoxide hydrolase 2; assay: Drug metabolism in human liver microsomes assessed as microsomal/soluble epoxide hydrolase mediated formation of [+O + H2O] metabolites at 1 uM after 60 mins in presence of NADPH by LC-MS analysis; type: ADME; conditions: 1 h
# [8] = Apparent permeability across basolateral to apical side in human Caco2 cells at 10 uM after 15 to 90 mins by LC-ESI-MS/MS analysis; type: ADME, cell-based; conditions: Caco-2
# [9] = Apparent permeability across apical to basolateral side in human Caco2 cells at 10 uM after 15 to 90 mins by LC-ESI-MS/MS analysis; type: ADME, cell-based; conditions: Caco-2
# [10] = Aqueous solubility of the compound in pH 7.4 potassium phosphate buffer at 2 mg after 1 to 24 hrs by RP-HPLC method; type: physicochemical
# [11] = molecular target: T3, Cytochrome P450 2J2 (Homo sapiens, UniProt P51589); assay: Inhibition of recombinant human CYP2J2 expressed in baculovirus infected insect cells co-expressing NADPH-CYP reductase and cytochrome b5 assessed as reduction in CYP2J2-mediated EPA epoxidation by measuring sum of EEQ and DiHETEs level at 1 to 50 uM using EPA as substrate preincubated for 5 mins followed by NADPH addition and measured after 15 mins by LCMS/MS analysis; type: ADME; conditions: recombinant enzyme, 0.25 h
# T3 sequence (P51589 whole entry): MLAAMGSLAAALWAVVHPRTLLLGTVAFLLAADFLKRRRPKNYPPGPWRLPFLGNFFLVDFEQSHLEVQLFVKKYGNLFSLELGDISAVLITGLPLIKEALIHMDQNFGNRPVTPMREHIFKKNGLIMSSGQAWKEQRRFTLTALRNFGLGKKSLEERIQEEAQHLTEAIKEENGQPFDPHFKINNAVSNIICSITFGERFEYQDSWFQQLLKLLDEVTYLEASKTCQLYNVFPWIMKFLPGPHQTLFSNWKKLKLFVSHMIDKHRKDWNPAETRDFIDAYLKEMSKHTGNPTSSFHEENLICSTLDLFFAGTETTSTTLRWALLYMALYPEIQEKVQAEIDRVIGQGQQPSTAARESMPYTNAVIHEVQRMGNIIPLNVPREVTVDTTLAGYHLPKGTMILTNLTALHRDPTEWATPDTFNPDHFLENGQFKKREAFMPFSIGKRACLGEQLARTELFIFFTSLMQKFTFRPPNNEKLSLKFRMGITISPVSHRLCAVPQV
# [12] = Stability in human plasma assessed as compound remaining at 10 uM measured up to 60 mins by LC-ESI-MS/MS analysis; type: ADME, cell-free; conditions: read-out: Stability
# [13] = test system: Rattus norvegicus; assay: Antiarrhythmic activity in Wistar rat model of coronary artery ligation-induced myocardial infarction assessed as reduction in total time on development of ventricular tachycardia at 100 ug, iv administered via bolus pretreated for 10 mins followed by coronary artery ligation measured for 45 mins; type: functional, organism-based
# [14] = test system: Rattus norvegicus; assay: Antiarrhythmic activity in Wistar rat model of coronary artery ligation-induced myocardial infarction assessed as reduction in disease severity score at 100 ug, iv administered via bolus pretreated for 10 mins followed by left anterior descending artery occlusion measured for 45 mins; type: functional, organism-based
# [15] = Negative chronotropic activity in Wistar rat neonatal cardiomyocytes assessed as changes to basal beating rate after 7 mins by inverted microscopic method; type: functional
# [16] = Negative chronotropic activity in Wistar rat neonatal cardiomyocytes assessed as decrease in basal beating rate after 7 mins by inverted microscopic method; type: functional, cell-based
# [17] = Half life in human hepatocytes at 1 uM measured up to 180 mins by LC-ESI-MS/MS analysis; type: ADME, cell-based, Hepatocyte
# [18] = Intrinsic clearance in human hepatocytes assessed per million cells at 1 uM measured up to 180 mins by LC-ESI-MS/MS analysis; type: ADME, cell-based, Hepatocyte; conditions: read-out: CLH
SMILES,Activity [1] [bpm],inhibition [2] [%],inhibition [3] [%],also measured
CNC(=O)C(=O)NCCCC/C=C\CCCCCCCCCP(=O)(OC)OCOC(=O)C(C)(C)C (configuration not stated),-16.2,5.4,18.6,
CCCCCCCC/C=C\CCCCCCCC(=O)O [OLEIC ACID],,,,Drug metabolism [4]: Metabolite_Notdetected; Drug metabolism [5]: Metabolite_Detected; Drug metabolism [6]: Metabolite_Notdetected; Drug metabolism [7]: Metabolite_Detected
C[C@]12CC[C@H]3[C@@H](CCC4=CC(=O)CC[C@@]43C)[C@@H]1CC[C@@H]2O [TESTOSTERONE],,,,Papp B→A at 10 µM [8]: 58.9 ×10⁻⁶ cm/s; Papp A→B at 10 µM [9]: 32.5 ×10⁻⁶ cm/s
CCNC(=O)NCCCC/C=C\CCCCCCCCCC(=O)NCC(=O)[O-].[Na+],-21.1,0.9,19.2,solubility [10]: Soluble
CNC(=O)C(=O)NCCCC/C=C\CCCCCCCCCP(=O)(OCOC(=O)C(C)(C)C)OCOC(=O)C(C)(C)C,-23.5,5.1,38.4,
CCCCc1oc2ccc(NS(C)(=O)=O)cc2c1C(=O)c1ccc(OCCCN(CCCC)CCCC)cc1 [DRONEDARONE],,,,inhibition (INH) [11]: Active
CCNC(=O)NCCCC/C=C\CCCCCCCOCC(=O)O,-38,3.6,10.4,
CNC(=O)C(=O)NCCCC/C=C\CCCCCCCCCP(=O)(OC)OC,-18,5,6.4,
CC(C)[N+](C)(CCOC(=O)C1c2ccccc2Oc2ccccc21)C(C)C [PROPANTHELINE BROMIDE],,,,"remaining at 1 h, 10 µM [12]: 2.6%"
CNC(=O)C(=O)NCCCC/C=C\CCCCCCCCCOc1cccc2sc(NC(C)=O)nc12,-21.1,17,61.8,
CNC(=O)C(=O)NCCCC/C=C\CCCCCCCCCC(=O)NS(=O)(=O)c1ccccc1,-23.1,-3.2,1.1,
CNC(=O)C(=O)NCCCC/C=C\CCCCCCCCCc1noc(=O)[nH]1,-11,-5,-9.2,
CC[C@H]1OC(=O)[C@H](C)[C@@H](O[C@H]2C[C@@](C)(OC)[C@@H](O)[C@H](C)O2)[C@H](C)[C@@H](O[C@@H]2O[C@H](C)C[C@H](N(C)C)[C@H]2O)[C@](C)(O)C[C@@H](C)C(=O)[C@H](C)[C@@H](O)[C@]1(C)O [ERYTHROMYCIN],,,,Papp B→A at 10 µM [8]: 10.4 ×10⁻⁶ cm/s; Papp A→B at 10 µM [9]: 0.35 ×10⁻⁶ cm/s
CCNC(=O)NCCCC/C=C\CCCCCCCCCC(=O)OCCOCCOCCO,-19.8,26.5,76.6,solubility [10]: Soluble
CNC(=O)C(=O)NCCCC/C=C\CCCCCCCCCP(=O)([O-])[O-].[Na+].[Na+],-21.3,6.8,37.7,
CNC(=O)C(=O)NCCCC/C=C\CCCCCCCCCC1=NO[S+]([O-])N1 (configuration not stated),-24.3,-0.2,10,
CNC(=O)C(=O)NCCCC/C=C\CCCCCCCCCC(=O)N[C@@H](C)C(=O)[O-].[Na+],-1.1,1.9,18.7,
CNC(=O)C(=O)NCCCCc1ccccc1CCCCCCCCCP(=O)([O-])[O-].[Na+].[Na+],-21.8,1.3,1.8,
CNC(=O)C(=O)NCCCC/C=C\CCCCCCCOCC(=O)OCCOCCOCCO,-25.2,1.3,1.9,Activity [13]: Active; Activity [14]: Active; solubility [10]: Soluble
CC[C@@H]1O[C@@H]1C/C=C\C/C=C\C/C=C\C/C=C\CCCC(=O)O,,,,Emax [15]: 28.9 bpm; EC50 [16]: 12 nM
CNC(=O)C(=O)NCCCc1ccccc1CCCCCCP(=O)([O-])[O-].[Na+].[Na+],-24.5,-1,-2.2,
CCNC(=O)NCCCC/C=C\CCCCCCCCCC(=O)O,,4.7,23.4,
CCCCc1oc2ccccc2c1C(=O)c1cc(I)c(OCCN(CC)CC)c(I)c1 [AMIODARONE],,,,inhibition (INH) [11]: Active
CCOc1ccc2ccc(=O)oc2c1 [ETHOXYCOUMARIN],,,,half-life at 1 µM [17]: 20.5 min; hepatocyte CLint at 1 µM [18]: 43.2 µL/min/1e6 cells
CNC(=O)C(=O)NCCCC/C=C\CCCCCCCCCS(=O)(=O)[O-].[Na+],-20.7,5.2,0,
CNC(=O)C(=O)NCCCC/C=C\CCCCCCCCCSc1ccccc1O,-7.5,0.4,1.5,
CC(C)(C)c1ccc(C(O)CCCN2CCC(C(O)(c3ccccc3)c3ccccc3)CC2)cc1 (configuration not stated) [TERFENADINE],,,,inhibition (INH) [11]: Active
CNC(=O)C(=O)NCCCC/C=C\CCCCCCCCCC(=O)N(C)CC(=O)[O-].[Na+],-15.6,-0.6,17.8,
